Tests used:
autoimmune diabetes = details: treatment of recipient NOD.scid mice before transfer of BDC-2.5 clone; cited from earlier work
[1] = system: isolated cultured human islets; assay: RNA-Seq gene expression in isolated cultured human islets with or without Raloxifene; assay type: cell-based; details: for % decrease in gene expression: 10 nM Raloxifene vs control
Procedure: FIG. 1: Inhibition of estrogen receptor signaling prevents dedifferentiation in cultured islets. Islets were either untreated or treated with an estrogen receptor selective estrogen receptor modulator (SERM; 10 nM Raloxifene). RNA-Seq analysis of cultured islets was performed following 4 days in culture. Raloxifene treatment was for one day on the final day of culture. Expression levels of individual genes were calculated by the method of RPKM (reads per kilobase per million mapped reads). Data is represented as the log of the ratio (Islets-Raloxifene: Islets-no treatment) where positive values indicate an increase in gene expression with Raloxifene treatment. […] (IL-8, CXXL6, SERPINB2, OLFM4).
Following isolation, the islet cell clusters are cultured in Connaught Medical Research Laboratory 1066 medium supplemented with 10 nM Raloxifene. These are the conditions described in the legend to FIG. 1.
An inflammatory gene expression profile is evoked following human islet isolation and culture and suppressed by Raloxifene treatment. Gene expression was assessed in isolated cultured human islets on multiple days following the isolation procedure. Islets were cultured in standard CMRL media with or without the addition of Raloxifene and gene expression profiles were assessed by RNA-Seq. In table 2A, the progressive increase of NFkB-target gene expression is observed over consecutive days in culture. Of note, significant increases in canonical NFkB targets (CCL2, CCL20, IL1B) as well as NFkB coordinately regulated gene clusters, such as the innate immunity gene cluster (APOL1-APOL6) were observed. In table 2B, Raloxifene treatment (10 nM) suppressed gene expression of the innate immunity gene cluster (APOL1-APOL6) which is typically observed to increase with the isolation and culture of human islets. Gene expression was assessed with RNA-Seq and quantification of gene transcripts is represented as RPKM ([…]). Note, three genes (APOL1, APOL2, and APOL6) in the innate immunity gene cluster were each reduced by Raloxifene treatment.

Structure (SMILES) | onset of diabetes (disease) (autoimmune diabetes) | endocrine phenotype of isolated islet cultures [1] | gene expression of the innate immunity gene cluster (APOL1-APOL6) ([1]; 10 nM Raloxifene) | % decrease in gene expression ([1]; APOL1 gene) [%] | RPKM (Ral) ([1]; APOL1 gene, 10 nM Raloxifene, control 2.1) [RPKM] | % decrease in gene expression ([1]; APOL2 gene) [%] | RPKM (Ral) ([1]; APOL2 gene, 10 nM Raloxifene, control 13.6) [RPKM] | % decrease in gene expression ([1]; APOL6 gene) [%] | RPKM (Ral) ([1]; APOL6 gene, 10 nM Raloxifene, control 1.5) [RPKM] | expression of housekeeping genes ([1]; GAPDH, ACTB, B2M, 10 nM, one day on final day of 4 days culture) | increase in expression of inflammatory genes and genes associated with a dedifferentiation profile ([1]; IL-8, CXXL6, SERPINB2, OLFM4, 10 nM, one day on final day of 4 days culture) | expression of genes associated with a differentiated phenotype ([1]; SYT8, INS, 10 nM, one day on final day of 4 days culture)
CCN1C=CC=C/C1=C1/C2=NC(=C(c3cccc[n+]3CC)C3=NC(=C(c4cccc[n+]4CC)c4ccc([n-]4)C(c4cccc[n+]4CC)=C4C=CC1=N4)C=C3)C=C2.[Cl-].[Cl-].[Cl-].[Cl-].[Cl-].[Mn+3] [AEOL-10113] | significantly delayed or prevented altogether |  |  |  |  |  |  |  |  |  |  | 
O=C(c1ccc(OCCN2CCCCC2)cc1)c1c(-c2ccc(O)cc2)sc2cc(O)ccc12 [Raloxifene] |  | preserved the endocrine phenotype | suppressed | 15 | 1.8 | 68 | 4.3 | 41 | 0.9 | without effect | prevented | increased expression

— US20150361400A1, “COMPOSITIONS AND METHODS FOR MAINTAINING AND IMPROVING PANCREATIC ISLET CELL FUNCTION AND STABILITY” (WAKE FOREST UNIVERSITY HEALTH SCIENCES, priority 2013, published 2015)
